Results: patent US20240391931A1 (Bristol-Myers Squibb Company, priority 2021, published 2024)
Structures can show the parent of a compound that is named as a salt.

Tests used:
N87 cells = experiment: Cellular proliferation in N87 cells (CellTiter Glo); type: cell-based, human; conditions: 72 h
Description: (§1) In addition to the engineered cell lines, the following cell lines were used: BT474 (human breast carcinoma), N87 (human gastric carcinoma), NCI-H1781 (human lung adenocarcinoma), and A431 (human epidermoid carcinoma); all cell lines were obtained from the American Type Culture Collection (ATCC, Manassas, VA). NCI-H1781 were grown in complete RPMI 1640 (Life Technologies, Carlsbad, CA) supplemented with 15% fetal bovine serum (FBS, Life Technologies, Carlsbad, CA) and 1% Penicillin-Streptomycin (P/S, Life Technologies, Carlsbad, CA). N87 cells were grown in complete RPMI 1640 supplemented with 10% FBS and 1% P/S. BT474 and A431 cells were grown in DMEM (Life Technologies, Carlsbad, CA) supplemented with 10% FBS and 1% P/S. All cells were maintained and propagated in a humidified 5% CO2 incubator at 37° C.
(§2) Cell proliferation in adherent cells was investigated in two HER2 amplified cell lines (BT474, N87), and a HER2VC expressing cell line (NCI-H1781). BT474, NCI-H1781, and N87 were plated in their appropriate growth media supplemented with either 10% FBS (BT474, N87) or 15% FBS (NCI-H1781) and 1% P/S in 96-well white clear-bottom tissue culture plates (Costar, Sigma-Aldrich). The starting cell densities were 3500, 5500, and 5000 cells for BT474, NCI-H1781, and N87 cells, respectively. An 8-point standard curve with varying cell densities (starting at 50000 cells and serially diluting down 2-fold) was prepared for each cell line and read 6 h after plating. Cells were allowed to attach overnight prior to compound treatment. Compound solutions were prepared by serially diluting test compounds in DMSO (Sigma-Aldrich), then diluting 500× in their corresponding serum free media. Cells were treated by adding a 1:1 volume of test compound to a final concentration of […], 0.004, 0.0014, or 0.0005 μM, in 0.1% DMSO and 5% FBS (for BT474 and N87) or 7.5% FBS (NCI-H1781). In BT474 and NCI-H1781, cell media was replaced and cells were redosed with fresh test compound solutions after 72 h. Viability was determined by CellTiter Glo (Promega, Madison, WI) after 72 h for N87 cells, and after 120 h for BT474 and […] cells. The results were converted to cell numbers using a standard curve; growth inhibition (GI50 values) were determined by Graph Pad Prism. […] The results are provided in Table 4, under columns titled “BT474-GI50”, “N87-GI50”, and “NCI-H1781-GI50”.

BT474 cells = experiment: Cellular proliferation in BT474 cells (CellTiter Glo); type: cell-based, human; conditions: 120 h, redosed after 72 h
Description: as §1, §2

HER2VC (G776delinsVC) = target: T1, HER2VC (G776delinsVC) (Homo sapiens, UniProt P04626, G776C/INS775V); experiment: HER2 signaling (pHER2) in NCI-H1781 cells; type: cell-based; conditions: 1.5 hr compound, 1% FBS
T1 construct: NCI-H1781 cells which endogenously expresses a HER2 mutant protein; endogenous in cells; host or cells: NCI-H1781
Description: as §1
(§3) HER2 signaling was assessed in BT474 and N87 cell lines which endogenously overexpress the HER2 wildtype (WT) protein, in NCI-H1781 cells which endogenously expresses a HER2 mutant protein containing a VC insertion in the kinase domain (HER2VC or G776delinsVC), and in engineered cell lines transduced to express the Her2 mutant protein containing the YVMA insertion (Hek293-HER2YVMA and BEAS2B-HER2YVMA).
(§4) BT474, N87, and NCI-H1781 were plated in 96-well tissue-culture treated plates (Corning Costar, Sigma-Aldrich) in full media and incubated overnight. Hek293-HER2YVMA and BEAS2B-HER2YVMA cells were plated in 96-well poly-D-lysine treated plates (BD Bioscience, San Jose, CA). For treatment with test compounds, the media was replaced with corresponding low serum media (1% FBS) containing test compound at 1.1, 0.37, 0.12, 0.041, 0.014, 0.005, 0.0014, 0.0005 μM or DMSO control (0.1%). Cells were incubated with compound for 1.5 hr at 37° C. After compound treatment, the media was removed and cells were lysed for 30 min on ice in complete MSD lysis buffer (prepared using MSD base lysis buffer (Meso-Scale Discovery) supplemented with cOmplete, EDTA-free Protease inhibitor cocktail (Roche), Phosphatase Inhibitor Cocktails 2 and 3 (Sigma-Aldrich), and 1 mM PMSF (Sigma-Aldrich)). Lysates were stored at −70° C. until further analysis.
(§5) HER2 signaling was evaluated using phospho (Tyr1248)/total ErbB2 whole cell lysate MSD plates (Meso-Scale Discovery, Gaithersburg, MD). The phospho HER2 signal was normalized to total HER2 for each sample; results are reported as % DMSO control. The normalized data was fitted using a sigmoidal curve analysis program (Graph Pad Prism version 6) with variable Hill slope to determine EC50 values.
(§6) The HER2 signaling results are provided in Table 4, under columns titled “BT474-pHER2 EC50”, “N87-pHER2 EC50”, and “NCI-H1781-pHER2 EC50”. Hek293-HER2YVMA ins fall under the heading “HEKYVMA-pHER2 EC50”, Ba/F3 HER2YVMA fall under the heading “Ba/F3 YVMA-pHER2 EC50” and BEAS2B-HER2YVMA fall under the heading “BEAS2B YVMA-pHER2 EC50”.

NCI-H1781 cells = experiment: Cellular proliferation in NCI-H1781 cells (CellTiter Glo); type: cell-based, human; conditions: 120 h, redosed after 72 h
Description: as §1, §2

[1] = target: T2, HER2 wildtype (WT) protein (Homo sapiens, UniProt P04626); experiment: HER2 signaling (pHER2 Tyr1248/total HER2 MSD) in N87 cells; type: cell-based; conditions: 1.5 hr compound, 1% FBS
T2 construct: BT474 and N87 cell lines which endogenously overexpress the HER2 wildtype (WT) protein; endogenous in cells; host or cells: BT474, N87
Description: as §1, §3, §4, §5, §6

[2] = Homo sapiens, BT-474, BT474 cells
[3] = Homo sapiens, NCI-H1781, NCI-H1781 cells

T2 sequence (P04626 23-1255): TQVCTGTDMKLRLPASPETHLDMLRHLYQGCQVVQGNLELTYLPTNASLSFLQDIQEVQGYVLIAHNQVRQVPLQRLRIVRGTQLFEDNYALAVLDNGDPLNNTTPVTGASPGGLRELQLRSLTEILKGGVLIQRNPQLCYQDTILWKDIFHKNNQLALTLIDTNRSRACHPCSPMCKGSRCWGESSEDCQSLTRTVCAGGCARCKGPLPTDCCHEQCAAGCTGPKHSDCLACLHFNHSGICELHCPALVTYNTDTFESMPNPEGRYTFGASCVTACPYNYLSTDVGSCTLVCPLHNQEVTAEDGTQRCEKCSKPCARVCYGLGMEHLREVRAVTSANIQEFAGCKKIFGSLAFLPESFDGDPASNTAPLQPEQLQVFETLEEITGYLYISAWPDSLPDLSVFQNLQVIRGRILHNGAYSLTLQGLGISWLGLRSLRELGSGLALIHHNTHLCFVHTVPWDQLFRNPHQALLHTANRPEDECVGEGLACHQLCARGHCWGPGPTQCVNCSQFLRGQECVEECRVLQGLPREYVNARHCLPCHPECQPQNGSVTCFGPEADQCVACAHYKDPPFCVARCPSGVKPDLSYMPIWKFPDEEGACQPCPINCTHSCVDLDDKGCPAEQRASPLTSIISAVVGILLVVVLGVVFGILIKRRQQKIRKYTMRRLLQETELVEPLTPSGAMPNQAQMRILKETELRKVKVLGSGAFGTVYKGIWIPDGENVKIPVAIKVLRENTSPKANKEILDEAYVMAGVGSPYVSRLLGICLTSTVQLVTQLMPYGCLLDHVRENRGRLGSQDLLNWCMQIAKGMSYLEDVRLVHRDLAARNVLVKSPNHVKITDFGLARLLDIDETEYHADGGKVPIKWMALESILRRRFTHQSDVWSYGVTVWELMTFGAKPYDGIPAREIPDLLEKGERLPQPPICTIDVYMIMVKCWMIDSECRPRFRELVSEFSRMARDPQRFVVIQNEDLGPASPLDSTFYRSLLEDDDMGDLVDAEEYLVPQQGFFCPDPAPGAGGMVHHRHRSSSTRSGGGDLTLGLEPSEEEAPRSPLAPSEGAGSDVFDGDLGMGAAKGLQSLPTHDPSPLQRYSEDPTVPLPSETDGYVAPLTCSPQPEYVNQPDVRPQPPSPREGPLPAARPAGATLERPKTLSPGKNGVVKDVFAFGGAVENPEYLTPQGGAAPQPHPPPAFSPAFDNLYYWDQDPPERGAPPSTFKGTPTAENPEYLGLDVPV
T1 sequence (P04626 with tags, fused parts or gaps INS775V/G776C): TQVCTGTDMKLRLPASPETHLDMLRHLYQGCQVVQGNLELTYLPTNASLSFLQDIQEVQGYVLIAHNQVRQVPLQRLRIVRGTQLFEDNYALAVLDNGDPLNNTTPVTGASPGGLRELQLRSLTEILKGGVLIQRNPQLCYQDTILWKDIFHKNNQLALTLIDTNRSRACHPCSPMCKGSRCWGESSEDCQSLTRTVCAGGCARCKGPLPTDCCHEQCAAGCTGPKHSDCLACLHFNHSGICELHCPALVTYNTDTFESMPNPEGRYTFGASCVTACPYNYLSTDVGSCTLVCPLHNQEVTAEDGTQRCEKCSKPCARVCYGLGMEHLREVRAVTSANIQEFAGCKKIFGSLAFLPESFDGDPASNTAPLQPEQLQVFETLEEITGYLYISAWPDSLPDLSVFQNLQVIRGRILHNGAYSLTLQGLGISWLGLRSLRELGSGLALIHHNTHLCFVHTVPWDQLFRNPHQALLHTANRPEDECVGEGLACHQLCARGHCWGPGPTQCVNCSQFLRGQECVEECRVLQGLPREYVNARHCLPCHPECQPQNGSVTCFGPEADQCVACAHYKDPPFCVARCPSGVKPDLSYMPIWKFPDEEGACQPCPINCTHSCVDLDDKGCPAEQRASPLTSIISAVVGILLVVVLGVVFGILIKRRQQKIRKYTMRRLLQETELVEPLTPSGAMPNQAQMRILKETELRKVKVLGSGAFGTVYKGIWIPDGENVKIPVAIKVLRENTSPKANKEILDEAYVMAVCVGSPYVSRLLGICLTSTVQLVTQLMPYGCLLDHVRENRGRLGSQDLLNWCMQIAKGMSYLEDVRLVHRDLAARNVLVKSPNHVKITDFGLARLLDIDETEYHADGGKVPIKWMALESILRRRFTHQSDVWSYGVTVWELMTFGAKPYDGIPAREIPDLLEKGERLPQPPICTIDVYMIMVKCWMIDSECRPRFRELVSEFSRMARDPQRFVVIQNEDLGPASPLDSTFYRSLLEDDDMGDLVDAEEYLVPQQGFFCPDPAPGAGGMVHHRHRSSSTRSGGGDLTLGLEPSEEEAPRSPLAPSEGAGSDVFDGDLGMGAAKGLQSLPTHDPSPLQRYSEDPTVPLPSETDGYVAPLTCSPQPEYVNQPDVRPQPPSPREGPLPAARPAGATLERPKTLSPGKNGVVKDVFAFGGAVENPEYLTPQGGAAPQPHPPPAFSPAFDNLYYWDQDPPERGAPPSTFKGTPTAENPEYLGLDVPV

GI50 (BT474 cells; [2]) | EC50 (HER2VC (G776delinsVC)) | GI50 (NCI-H1781 cells; [3]) | EC50 [1] | GI50 (BT474 cells; BT474 cells) | GI50 (NCI-H1781 cells; NCI-H1781 cells) | Compound | GI50 (N87 cells; Homo sapiens) | GI50 (N87 cells) | GI50 (NCI-H1781 cells; Homo sapiens, NCI-H1781 cells)
< 100 nM | < 100 nM | < 100 nM | < 100 nM | – | – | Cc1ccc(Oc2ccc(Nc3ncnc4sc5c(c34)C(C)N(C(=O)C=CCN(C)C)C5)cc2C)cn1 (single isomer, unassigned) [Compound 147] | < 100 nM | – | –
< 100 nM | 100 to 350 nM | 100 to 350 nM | < 100 nM | – | – | COc1ccc(Oc2ccc(Nc3ncnc4sc5c(c34)C(C)CN(C(=O)C=CCN(C)C)C5)cc2C)cn1 (single isomer, unassigned) [Compound 159] | < 100 nM | – | –
– | < 100 nM | – | < 100 nM | < 100 nM | < 100 nM | COc1ccc(Oc2ccc(Nc3ncnc4sc5c(c34)C(C)CN(C(=O)C=CCN(C)C)C5)cc2C)cn1 (single isomer, unassigned) [Compound 160] | – | < 100 nM | –
< 100 nM | < 100 nM | – | < 100 nM | – | < 100 nM | Cc1ccc(Oc2ccc(Nc3ncnc4sc5c(c34)CN(C(=O)C=CCN(C)C)C5C)cc2C)cn1 (single isomer, unassigned) [Compound 169] | < 100 nM | – | –
– | < 100 nM | – | < 100 nM | – | – | Cc1ccc(Oc2ccc(Nc3ncnc4sc5c(c34)C(C)CN(C(=O)C=CCN3CCOCC3)C5)cc2C)cn1 (single isomer, unassigned) [Compound 177] | – | – | –
< 100 nM | 100 to 350 nM | < 100 nM | < 100 nM | – | – | COc1ccc(Oc2ccc(Nc3ncnc4sc5c(c34)CN(C(=O)/C=C/CN(C)C)C5)cc2C)cn1 [Compound 128, (E)-4-(dimethylamino)-1-(4-((4-((6-methoxypyridin-3-yl)oxy)-3-methylphenyl)amino)-5,7-dihydro-6H-pyrrolo[3′,4′:4,5]thieno[2,3-d]pyrimidin-6-yl)but-2-en-1-one] | < 100 nM | – | –
< 100 nM | < 100 nM | < 100 nM | < 100 nM | – | – | Cc1ccc(Oc2ccc(Nc3ncnc4sc5c(c34)CN(C(=O)/C=C/CN(C)C)C5)cc2Cl)cn1 [Compound 129, (E)-1-(4-((3-Chloro-4-((6-methylpyridin-3-yl)oxy)phenyl)amino)-5H-pyrrolo[3′,4′:4,5]thieno[2,3-d]pyrimidin-6(7H)-yl)-4-(dimethylamino)but-2-en-1-one] | < 100 nM | – | –

Compound | GI50 (BT474 cells; [2]) | EC50 (HER2VC (G776delinsVC)) | GI50 (NCI-H1781 cells; [3]) | EC50 [1] | GI50 (BT474 cells; BT474 cells) | GI50 (NCI-H1781 cells; NCI-H1781 cells) | GI50 (N87 cells; Homo sapiens) | GI50 (N87 cells) | GI50 (NCI-H1781 cells; Homo sapiens, NCI-H1781 cells)
Cc1ccc(Oc2ccc(Nc3ncnc4sc5c(c34)CCN(C(=O)/C=C/CN(C)C)C5)cc2C)cn1 [Compound 8, (E)-4-(Dimethylamino)-1-(4-((3-methyl-4-((6-methylpyridin-3-yl)oxy)phenyl)amino)-5,6-dihydropyrido[4′,3′:4,5]thieno[2,3-d]pyrimidin-7(8H)-yl)but-2-en-1-one] | < 100 nM | < 100 nM | – | < 100 nM | – | – | < 100 nM | – | < 100 nM
Cc1ccc(Oc2ccc(Nc3ncnc4sc5c(c34)CCN(C(=O)/C=C/CN3CC4CC(C3)O4)C5)cc2C)cn1 [Compound 15] | – | – | – | < 100 nM | – | – | – | – | –
Cc1ccc(Oc2ccc(Nc3ncnc4sc5c(c34)CCN(C(=O)/C=C/CN3CC4CCC(C4)C3)C5)cc2C)cn1 [Compound 16, (E)-4-(3-azabicyclo[3.2.1]octan-3-yl)-1-(4-((3-methyl-4-((6-methylpyridin-3-yl)oxy)phenyl)amino)-5,8-dihydropyrido[4′,3′:4,5]thieno[2,3-d]pyrimidin-7(6H)-yl)but-2-en-1-one benzenesulfonate salt] | – | – | – | < 100 nM | – | – | – | – | –
Cc1ccc(Oc2ccc(Nc3ncnc4sc5c(c34)CCN(C(=O)/C=C/CN3CCOCC3)C5)cc2C)cn1 [Compound 17, (E)-1-(4-((3-Methyl-4-((6-methylpyridin-3-yl)oxy)phenyl)amino)-5,6-dihydropyrido[4′,3′:4,5]thieno[2,3-d]pyrimidin-7(8H)-yl)-4-morpholinobut-2-en-1-one] | < 100 nM | < 100 nM | < 100 nM | < 100 nM | – | – | < 100 nM | – | –
